Experimental findings from US20060099666A1, “Analyzer for the simultaneous enzymatic detection of closely related analytes” (Medinov, Inc., priority 2002, published 2006) are described below.

Read-outs that look alike come from different tables or passages of the source.

The target in assay [1] is T1, alcohol oxidase (Komagataella phaffii, UniProt P04842).
T1 construct: purchased Sigma A-2404
T1 sequence (P04842 1-663): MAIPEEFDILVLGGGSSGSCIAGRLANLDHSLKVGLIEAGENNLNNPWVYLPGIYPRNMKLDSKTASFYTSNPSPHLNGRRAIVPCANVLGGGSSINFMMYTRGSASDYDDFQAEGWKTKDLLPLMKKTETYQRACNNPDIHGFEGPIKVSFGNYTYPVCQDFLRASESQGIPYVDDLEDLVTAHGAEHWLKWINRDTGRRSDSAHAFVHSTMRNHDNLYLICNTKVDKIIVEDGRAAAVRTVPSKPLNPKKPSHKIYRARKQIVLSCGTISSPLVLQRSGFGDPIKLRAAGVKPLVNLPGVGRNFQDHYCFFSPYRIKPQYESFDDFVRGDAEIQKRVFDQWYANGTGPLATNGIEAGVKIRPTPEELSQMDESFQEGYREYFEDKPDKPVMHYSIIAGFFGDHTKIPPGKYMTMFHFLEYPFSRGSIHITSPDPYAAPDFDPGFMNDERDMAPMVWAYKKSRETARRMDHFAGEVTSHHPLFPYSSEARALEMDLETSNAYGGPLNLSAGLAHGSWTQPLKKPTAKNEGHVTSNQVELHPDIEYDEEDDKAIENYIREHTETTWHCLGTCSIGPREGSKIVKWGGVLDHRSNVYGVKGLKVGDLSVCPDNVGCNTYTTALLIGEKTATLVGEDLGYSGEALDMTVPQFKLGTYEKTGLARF
Kind of assay: Tests to improve the observed signals: effect of SDS on enzyme activity. The conditions noted are these: SDS 0.1%. The assay is classed as biochemical. How it is done: Tests aiming to improve the observed signals were carried out. Low concentrations of SDS (0.1%) allow for a uniform deposit of a sample on the surface of the working electrode, while simultaneously increasing the enzyme activity by a factor of 110%.

Assay [2] addresses alcohol oxidase (Pichia pastoris) (Komagataella phaffii, UniProt P04842). The conditions noted are these: Pichia pastoris enzyme. The protocol: (§1) The Michaelis-Menten constant (KM) of an enzyme can be determined in an aqueous environment from the initial reaction rate of the enzyme catalyzed reaction, by either calorimetric or electrochemical analysis. The initial reaction rate was determined using both methods, based on the results obtained for different concentrations of methanol and ethanol and various alcohol oxydases (Hansenula sp., Pichia pastoris and Candida boidinii). Using the Hanes method (diagram of the concentration/initial rate as a function of the initial concentration of the substrate in the reaction medium), the KM can be calculated, which corresponds to the origin of the straight line, opposite the abscissa.

Assay [3] deals with alcohol oxidase (Candida boidini) (Candida boidinii, UniProt Q00922). The conditions noted are these: Candida boidini enzyme, electrochemistry.
Assay [4] concerns alcohol oxidase (Hansenula sp.). Kind of assay: KM by the Hanes method, electrochemistry, alcohol oxidase of Hansenula sp. It is filed as biochemical. As to conditions: Hansenula sp. enzyme. How it is done:
as §1

alcohol oxidase (Candida boidini), sequence (Q00922 2-663 limits assumed): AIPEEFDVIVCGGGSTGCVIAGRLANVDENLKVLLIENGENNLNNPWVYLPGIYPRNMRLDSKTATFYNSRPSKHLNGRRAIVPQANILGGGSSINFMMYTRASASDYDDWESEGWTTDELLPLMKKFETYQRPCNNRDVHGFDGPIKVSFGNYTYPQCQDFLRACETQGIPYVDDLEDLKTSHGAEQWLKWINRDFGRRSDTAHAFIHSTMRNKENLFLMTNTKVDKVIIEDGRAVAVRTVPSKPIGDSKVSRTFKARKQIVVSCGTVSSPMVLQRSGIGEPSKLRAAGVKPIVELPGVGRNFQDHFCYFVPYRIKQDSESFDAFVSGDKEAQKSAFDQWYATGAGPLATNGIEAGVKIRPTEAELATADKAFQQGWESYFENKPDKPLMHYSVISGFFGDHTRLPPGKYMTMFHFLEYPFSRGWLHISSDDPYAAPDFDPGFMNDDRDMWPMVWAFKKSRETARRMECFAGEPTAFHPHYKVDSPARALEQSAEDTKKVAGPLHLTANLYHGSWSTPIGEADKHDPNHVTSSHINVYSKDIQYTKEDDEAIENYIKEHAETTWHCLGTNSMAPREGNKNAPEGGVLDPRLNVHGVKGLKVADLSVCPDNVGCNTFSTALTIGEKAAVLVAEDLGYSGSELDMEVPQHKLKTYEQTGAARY

For `CCCCCCCCCCCCOS(=O)(=O)[O-].[Na+]` [SDS], in assay [1], the “increasing the enzyme activity by a factor of” value is listed as 110%.
Broadly, the Km is the concentration of substrate that gives half-maximal velocity. For `CO` [MeOH, methanol], the Km in assay [2] (read-out: KM MeOH, [MeOH] 0.02-2.5 mM, colorimetry) was 640 µM; in assay [2] (read-out: KM MeOH, [MeOH] 0.05-2.5 mM, electrochemistry) it was 310 µM; in assay [2] (read-out: KM MeOH, [MeOH] 0.125-1.0 mM, electrochemistry), 560 µM; in assay [3] (read-out: KM MeOH, [MeOH] 0.05-0.5 mM) it was 290 µM; in assay [4] ([MeOH] 0.05-2.5 mM, read-out: KM MeOH), 390 µM.
In the case of `CCO` [EtOH, ethanol], the Km stood at 3460 µM in assay [2] (read-out: KM EtOH, [EtOH] 0.05-3.3 mM, colorimetry); 2610 µM in assay [2] (read-out: KM EtOH, [EtOH] 0.25-5.0 mM, electrochemistry); 2910 µM in assay [2] (read-out: KM EtOH, [EtOH] 2.5-10.0 mM, electrochemistry); 8410 µM in assay [3] (read-out: KM EtOH, [EtOH] 0.25-1.25 mM); 6000 µM in assay [4] ([EtOH] 0.25-5.0 mM, read-out: KM EtOH).
